In assay [1] the target is T1, N-myristoylglycylpeptide synthetase (N-myristoyl transferase or NMT) (Saccharomyces cerevisiae, UniProt P14743).
T1 construct: endogenous in cells; host or cells: S. cerevisiae strain JR153
T1 sequence (P14743 1-455): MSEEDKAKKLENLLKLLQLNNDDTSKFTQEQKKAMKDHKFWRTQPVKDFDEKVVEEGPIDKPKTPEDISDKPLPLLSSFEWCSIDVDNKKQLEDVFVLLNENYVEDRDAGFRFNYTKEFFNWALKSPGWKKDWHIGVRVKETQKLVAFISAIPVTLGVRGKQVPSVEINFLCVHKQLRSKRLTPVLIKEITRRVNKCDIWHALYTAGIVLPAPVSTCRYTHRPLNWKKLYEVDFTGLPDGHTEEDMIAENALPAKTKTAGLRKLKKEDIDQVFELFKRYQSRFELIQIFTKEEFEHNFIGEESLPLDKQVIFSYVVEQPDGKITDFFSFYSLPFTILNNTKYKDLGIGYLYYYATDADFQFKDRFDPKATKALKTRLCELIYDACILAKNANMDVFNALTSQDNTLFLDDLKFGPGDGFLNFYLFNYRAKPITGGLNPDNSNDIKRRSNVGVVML
The experiment in a line: Octapeptide substrate specificity / kinetic characterization with partially purified yeast myristoylating enzyme (Table II). It is filed as biochemical. The procedure:
The synthetic octapeptides I and II were initially used to identify a unique enzymatic activity which transfers myristic acid to the amino terminal glycine of this and other peptides. […] The enzyme activity was determined in an in vitro assay which measures the transfer of [³H]-myristic acid to the acceptor peptide, […]. The transfer reaction is dependent on adenosine triphosphate (ATP) and coenzyme A (CoA). The enzymatic product was then identified by high performance liquid chromatography (HPLC) by co-elution with a chemically synthesized myristoyl peptide standard. […] Both contained M-myristoyl glycine.
Assay for N-myristoylglycylpeptide synthetase activity. [³H]Fatty acyl CoA was synthesized enzymatically and added to the incubation as follows. […] Typically, 40% to 50% of the [³H]fatty acid was converted to its CoA ester by this procedure as measured by determining the radioactivity remaining in the reaction after acidification with 6 N HCl to pH 2.0 and extraction 6 times with 5 volumes of heptane, a modification of the method of Hosaka et al., Meth. […] One minute fractions were collected and the radioactivity in each fraction determined by liquid scintillation counting. […]

Assay [2] concerns the target T2, N-myristoylglycylpeptide synthetase (Saccharomyces cerevisiae, UniProt P14743).
T2 construct: A protease-deficient strain of Saccharomyces cerevisiae, JR153 [Hemmings et al., Proc. Natl. Acad. Sci. USA 78, 435-439 (1981)], was used as a source of N-myristoylglycylpeptide synthetase; endogenous in cells; host or cells: S. cerevisiae strain JR153, crude membrane pellet of cell lysate
T2 sequence (P14743 1-455): T1 sequence (P14743 1-455)
The experiment in a line: Assay for N-myristoylglycylpeptide synthetase activity, crude yeast membrane fractions (Table I). It is filed as biochemical. The conditions noted are these: Test 3: + 1 mM peptide, 18 µM peptide substrate GlyAsnAlaAlaAlaAlaArgArg, control 26.7. On the procedure:
Preparation of yeast extract for the assay of N-myristoylglycylpeptide synthetase activity. Yeast cultures were grown as described above to O.D. 660 nm of 1 to 3. Cells from 40 ml of culture were collected by centrifugation at 4°C at 7600 x g for 10 minutes. The supernatant was decanted, the cell pellet was resuspended by pipetting into 1 ml of cold 10 mM Tris, pH 7.4, transferred to a 1.5 ml conical polypropylene centrifuge tube, and the cells were then repelleted at 4°C at 7600 x g for 10 minutes. […] Protein was determined by the method of Peterson, Anal. Biochem. 83, 346-356 (1977).
Assay for N-myristoylglycylpeptide synthetase activity. […] Typically, 40% to 50% of the [³H]fatty acid was converted to its CoA ester by this procedure as measured by determining the radioactivity remaining in the reaction after acidification with 6 N HCl to pH 2.0 and extraction 6 times with 5 volumes of heptane, a modification of the method of Hosaka et al., Meth. […] (Under these conditions, 95% of synthetic [³H]myristoylpeptide or [³H]palmitoylpeptide remined soluble when added to an assay mixture.) Fifty microliters of the supernatant were mixed with 75 µl methanol and 75 µl of HPLC buffer A, and analyzed by reverse phase HPLC on a 3.9 mm by 30 cm Waters µ-Bondapak C₁₈ column using the same HPLC buffers described above, starting at 35% acetonitrile and eluting with a 1% per minute acetonitrile gradient. […]

Where no end group is shown, it is not given here.

“GNANSARR-NH2 [Gly-Asn-Ala-Asn-Ser-Ala-Arg-Arg]” yielded a Ki in assay [1] of 0.3 µM. With GPRP, the “Rate of Myristoylpeptide Synthesis” value in assay [2] is on record as 25.6 DPM x 10⁻³ /10 min. On the same count and under the same terms, the result for “GSSKSPKDPS [a decapeptide containing N-terminal glycine]” reads 27.4 DPM x 10⁻³ /10 min. In turn, “GNAAKARR-NH2 [Gly-Asn-Ala-Ala-Lys-Ala-Arg-Arg]” returned a Ki in assay [1] of 50 µM.
